{"source": "patent US20250144054A1", "about": "“SMALL MOLECULE STAT3 INHIBITOR FOR TREATING TRIPLE NEGATIVE BREAST CANCER” (UNIVERSITY OF MARYLAND, BALTIMORE, priority 2022, published 2025)", "test_system": "STAT3", "test": "Western blot of P-STAT3 (Y705), STAT3, Cyclin D1, Cleaved Caspase-3 in MDA-MB-231 cells", "assay_type": "cell-based, human", "details": "MDA-MB-231, overnight", "description": "(A) MDA-MB-231, SUM159, and 4T1 cell lines were treated with DMSO or LLL12B overnight and the expression levels of P-STAT3 (Y705), STAT3, Cyclin D1, and Cleaved Caspase-3 were analyzed by Western blot. GAPDH served as a protein loading control. (B) MDA-MB-231 cells were treated with DMSO or C188-9 overnight and the expression levels of P-STAT3 (Y705), STAT3, Cyclin D1, and Cleaved Caspase-3 were analyzed by Western blot. (C) MDA-MB-231, SUM159, and 4T1 cells were seeded in a 96-well plate and treated with DMSO or LLL12B for 5 hours and a Caspase-3/7 Fluorescence Assay Kit was used to detect the activation of caspase-3/7. (D) MDA-MB-231, SUM159, and 4T1 cell lines were treated with DMSO or LLL12B for 8-12 hours, and flow cytometry was performed to analyze annexin V and PI staining. The quantification of apoptotic cells was shown in the right panel. ** P<0.01, *** P<0.001 and ****P<0.0001.\nSiRNA and transfection. STAT3 siRNA and Negative Control siRNA (Cell Signaling Technology, Danvers, MA, USA) were used to knock down STAT3 in MDA-MB-231, SUM159, and 4T1 cell lines. Cells were transfected with STAT3 siRNA or Negative Control siRNA using Lipofectamine RNAiMAX (Invitrogen, Carlsbad, CA, USA) according to the manufacturer's instructions. After 72 hours, cell viability was examined by MTT cell viability assay, and the transfection efficiency was examined by western blot.\nWestern blot. Cells were collected and total protein was extracted using cell lysis buffer (Cell Signaling Technology, Danvers, MA, USA). Protein concentration was determined using the Pierce BCA Protein Assay Kit (Thermo Fisher Scientific, Waltham, MA, USA) according to the manufacturer's instructions. Equal amounts of protein were separated by 10% SDS-PAGE gels and transferred to PVDF membranes. Membranes were blocked in 5% non-fat milk at room temperature and probed with specific antibodies P-STAT3 (Y705), STAT3, Cyclin D1, Cleaved Caspase-3, P-STAT1 (Y701), STAT1, P-ERK, ERK or GAPDH (1:1000, Cell Signaling Technology, Danvers, MA, USA) at 4° C. overnight. The blots were visualized using SuperSignal™ West Femto Maximum Sensitivity Substrate (Thermo Fisher Scientific, Waltham, MA, USA) and an Amersham Imager 680 (GE Healthcare Life Sciences, Marlborough, MA, USA) after incubating with horseradish peroxidase (HRP)-conjugated anti-rabbit secondary antibody (1:5000, Cell Signaling Technology, Danvers, MA, USA).", "note": "Where “and” joins values, the source holds several entries; their conditions need not be identical. Identical values can stand only once.", "data": [{"smiles": "COc1ccc(S(=O)(=O)Nc2cc(-c3c(O)ccc4ccccc34)c(O)c3ccccc23)cc1", "note": "[C188-9, reference compound]", "values": [{"measurement": "concentration that inhibited P-STAT3 and Cyclin D1 in Western blot", "value": "25 µM and 50 µM"}]}]}
